Where two headings read alike, the source gives them in different places. Where a SMILES comes first, the peptide text is derived from it.
How the values were obtained:
[1] = system: E. coli ATCC 25922, Salmonella Enteritidis, S. aureus ATCC 29213; assay: Broth microdilution, panel result (at least one / all strains), Example 2; format: cell-based; parameters: key to inhibitory activity (asterisk): *Indicates inhibitory activity; settings: Table 14; against at least one of E. coli ATCC 25922, Salmonella Enteritidis, S. aureus ATCC 29213
Method: (§1) The antimicrobial activity of the putative AMPs was determined by a broth microdilution assay as described by the Clinical and Laboratory Standards Institute, with the published adaptations for testing of cationic peptides. Escherichia coli 25922 and Staphylococcus aureus 29213 isolates were purchased from the American Type Culture Collection (ATCC; Manassas, VA, USA). A human clinical isolate of Salmonella enterica serovar Enteritidis was provided by the BC Centre for Disease Control. Bacteria from stocks stored at −80° C. were streaked onto nonselective Columbia blood agar with 5% sheep blood (Oxoid) and incubated overnight at 37° C. Next, 2-4 colonies were streaked onto a new agar plate to ensure uniform health of colonies used in the broth microdilution assay. Isolated colonies were suspended in MHB and the optical density was measured with a spectrophotometer to create an initial inoculum concentration of approximately 1×10^8 cfu/mL. The inoculum was diluted 1:250 to a final concentration of 2-8×10^5 cfu/mL, which was confirmed by performing a Total Viability Count (TVC). The TVC consisted of plating a 1:1000 dilution of the final inoculum on nonselective media and was also used to confirm the health and purity of the inoculum in each trial.
(§2) Lyophilized 80 μg peptide aliquots synthesized by GenScript (Piscataway, NJ, USA) were resuspended to 1.28 mg/mL with UltraPure water (Thermo Fisher Scientific, Waltham, MA, USA) and serially diluted in polypropylene 96-well microtiter plates (Greiner Bio-One #650261, Kremsmunster, Austria) from 128 down to 0.5 μg/mL. Two columns per plate were reserved for growth and sterility controls. Inoculum was added to the wells containing the peptide and the growth control. Plates were incubated for 20-24 h at 37° C. The minimum inhibitory concentration (MIC) was determined as the lowest peptide concentration where there was no visible bacterial growth.

[2] = system: E. coli ATCC 25922; format: cell-based, Escherichia coli
Method: (§3) Bacteria were grown overnight at 37° C. in Mueller-Hinton Broth (MHB; Sigma-Aldrich, St. Louis. MO, USA) in a shaking incubator and aliquoted into cryovials with a 50% glycerol solution in a 1:1 ratio. No additives were added to the MHB during the growth of bacterial isolates. Glycerol stocks were stored at −80° C.
as §1, §2

[3] = system: Salmonella enterica serovar Enteritidis (human clinical isolate); format: cell-based
Method: as §3, §1, §2

[4] = system: S. aureus ATCC 29213; format: cell-based, Staphylococcus aureus
Method: as §3, §1, §2

[5] = serovar Enteritidis (human clinical isolate)

Row | SMILES | MIC (ug/mL) E. coli ([2]; ATCC 25922) | MIC (ug/mL) S. Enteritidis [3, 5] | MIC (ug/mL) S. aureus ([4]; ATCC 29213) | inhibitory activity (asterisk) [1] | MIC (ug/mL) E. coli ([2]; Table 14, first value of the cell, three independent experiments, highest concentration tested 128) | MIC (ug/mL) S. Enteritidis ([3]; Table 14, second value of the cell, three independent experiments, highest concentration tested 128) | MIC (ug/mL) S. aureus ([4]; Table 14, third value of the cell, three independent experiments, highest concentration tested 128)
1 | CC[C@H](C)[C@H](NC(=O)CN)C(=O)N[C@@H](CC(C)C)C(=O)N[C@@H](CCCNC(=N)N)C(=O)N[C@@H](CO)C(=O)N[C@@H](CC(C)C)C(=O)NCC(=O)N[C@@H](Cc1c[nH]c2ccccc12)C(=O)N[C@H](C(=O)N[C@@H](CCC(N)=O)C(=O)N[C@@H](CCSC)C(=O)N1CCC[C@H]1C(=O)N[C@@H](CCCNC(=N)N)C(=O)N[C@@H](CO)C(=O)N[C@@H](CCCNC(=N)N)C(=O)N[C@@H](CCCNC(=N)N)C(=O)N[C@@H](CCCNC(=N)N)C(=O)N[C@@H](Cc1c[nH]cn1)C(=O)N[C@@H](CCCNC(=N)N)C(=O)O)[C@@H](C)CC [AnFI2, GILRSLGWIQMPRSRRRHR] (H-GILRSLGWIQMPRSRRRHR-OH; N-terminus and C-terminus assumed) | – | – | – | 721.* GILRSLGWIQMPRSRRRHR | – | – | –
2 | C[C@H](NC(=O)CNC(=O)[C@H](CCCNC(=N)N)NC(=O)[C@H](CCC(=O)O)NC(=O)[C@H](CCC(=O)O)NC(=O)[C@@H](N)CCCCN)C(=O)N1CCC[C@H]1C(=O)N[C@@H](CCCCN)C(=O)NCC(=O)N[C@@H](CS)C(=O)N[C@@H](Cc1c[nH]c2ccccc12)C(=O)N[C@H](C(=O)N[C@@H](CCCCN)C(=O)N[C@@H](CO)C(=O)N[C@@H](Cc1ccc(O)cc1)C(=O)N1CCC[C@H]1C(=O)N1CCC[C@H]1C(=O)N[C@@H](CCCCN)C(=O)N1CCC[C@H]1C(=O)N[C@@H](CS)C(=O)N[C@@H](CO)C(=O)NCC(=O)N[C@@H](CCCCN)C(=O)N[C@@H](CCCNC(=N)N)C(=O)O)[C@@H](C)O [PeNi13] (H-KEERGAPKGCWTKSYPPKPCSGKR-OH; N-terminus and C-terminus assumed) | >128/>128/>128 ug/mL | >128/>128/>128 ug/mL | >128/>128/>128 ug/mL | – | – | – | –
3 | N=C(N)NCCC[C@H](NC(=O)[C@H](CCCNC(=N)N)NC(=O)[C@H](CO)NC(=O)[C@H](CCCNC(=N)N)NC(=O)[C@H](Cc1c[nH]cn1)NC(=O)[C@H](CO)NC(=O)[C@H](Cc1c[nH]c2ccccc12)NC(=O)[C@H](CCCNC(=N)N)NC(=O)[C@@H]1CCCN1C(=O)[C@@H](N)CCCNC(=N)N)C(=O)O [PeNi18, RPRWSHRSRR] (H-RPRWSHRSRR-OH; N-terminus and C-terminus assumed) | >128/>128/>128 ug/mL | >128/>128/>128 ug/mL | >128/>128/>128 ug/mL | – | – | – | –
4 | CC[C@H](C)[C@H](NC(=O)CNC(=O)[C@H](CO)NC(=O)[C@H](CC(C)C)NC(=O)[C@H](CC(C)C)NC(=O)CN)C(=O)N[C@@H](CC(C)C)C(=O)NCC(=O)N[C@@H](C)C(=O)NCC(=O)N[C@@H](CCCCN)C(=O)N[C@@H](CCCCN)C(=O)O [RaOm1, GLLSGILGAGKK] (H-GLLSGILGAGKK-OH; N-terminus and C-terminus assumed) | – | – | – | – | >128/>128/>128 ug/mL | >128/>128/>128 ug/mL | >128/>128/>128 ug/mL
5 | CC(C)C[C@H](NC(=O)CNC(=O)[C@H](Cc1ccccc1)NC(=O)[C@@H]1CCCN1C(=O)[C@@H](N)C(C)C)C(=O)N[C@@H](CCCCN)C(=O)N1CCC[C@H]1C(=O)N[C@@H](CCCNC(=N)N)C(=O)O [TeRu1, VPFGLKPR] (H-VPFGLKPR-OH; N-terminus and C-terminus assumed) | >128/>128/>128 ug/mL | >128/>128/>128 ug/mL | >128/>128/>128 ug/mL | – | – | – | –
6 | CC(C)C[C@H](NC(=O)[C@H](Cc1ccccc1)NC(=O)[C@H](CC(C)C)NC(=O)[C@H](CCCCN)NC(=O)[C@H](Cc1c[nH]cn1)NC(=O)[C@@H](NC(=O)[C@H](Cc1ccccc1)NC(=O)[C@H](CO)NC(=O)[C@H](CC(C)C)NC(=O)[C@@H](NC(=O)[C@H](C)N)C(C)C)C(C)C)C(=O)N[C@@H](CC(N)=O)C(=O)N[C@@H](Cc1ccccc1)C(=O)N[C@@H](CC(C)C)C(=O)N[C@@H](Cc1c[nH]cn1)C(=O)N[C@H](C(=O)N[C@@H](CC(=O)O)C(=O)N[C@H](C(=O)N[C@@H](CO)C(=O)N[C@@H](CCCCN)C(=O)NCC(=O)N[C@@H](CCCCN)C(=O)N[C@@H](CS)C(=O)N[C@@H](CCCNC(=N)N)C(=O)N[C@@H](C)C(=O)N[C@H](C(=O)N[C@@H](CC(C)C)C(=O)N[C@@H](CCC(N)=O)C(=O)O)[C@@H](C)O)[C@@H](C)O)C(C)C [TeRu3] (H-AVLSFVHKLFLNFLHVDTSKGKCRATLQ-OH; N-terminus and C-terminus assumed) | >128/>128/>128 ug/mL | >128/>128/>128 ug/mL | >128/>128/>128 ug/mL | – | – | – | –

Continued, in another order:

Row | MIC (ug/mL) E. coli ([2]; ATCC 25922) | MIC (ug/mL) S. Enteritidis [3, 5] | MIC (ug/mL) S. aureus ([4]; ATCC 29213) | SMILES | inhibitory activity (asterisk) [1] | MIC (ug/mL) E. coli ([2]; Table 14, first value of the cell, three independent experiments, highest concentration tested 128) | MIC (ug/mL) S. Enteritidis ([3]; Table 14, second value of the cell, three independent experiments, highest concentration tested 128) | MIC (ug/mL) S. aureus ([4]; Table 14, third value of the cell, three independent experiments, highest concentration tested 128)
7 | >128/>128/>128 ug/mL | >128/>128/>128 ug/mL | >128/>128/>128 ug/mL | CC(C)C[C@H](NC(=O)[C@H](CCCCN)NC(=O)[C@H](CCCCN)NC(=O)[C@H](CC(C)C)NC(=O)[C@@H](NC(=O)[C@H](Cc1ccc(O)cc1)NC(=O)[C@@H](NC(=O)CNC(=O)[C@H](CCC(=O)O)NC(=O)[C@H](CC(N)=O)NC(=O)[C@H](Cc1c[nH]c2ccccc12)NC(=O)[C@@H]1CCCN1C(=O)[C@H](CO)NC(=O)[C@H](CO)NC(=O)[C@@H]1CCCN1C(=O)[C@H](CC(C)C)NC(=O)[C@@H](N)Cc1ccccc1)[C@@H](C)O)C(C)C)C(=O)N[C@@H](CCCCN)C(=O)N[C@@H](CO)C(=O)O [PeNi15, FLPSSPWNEGTYVLKKLKS] (H-FLPSSPWNEGTYVLKKLKS-OH; N-terminus and C-terminus assumed) | – | – | – | –
8 | >128/>128/>128 ug/mL | >128/>128/>128 ug/mL | >128/>128/>128 ug/mL | CC[C@H](C)[C@H](NC(=O)[C@H](CCCNC(=N)N)NC(=O)[C@@H](NC(=O)[C@@H]1CCCN1C(=O)[C@H](CCCNC(=N)N)NC(=O)[C@@H](NC(=O)[C@@H]1CCCN1C(=O)[C@H](CCC(N)=O)NC(=O)[C@H](CC(C)C)NC(=O)CNC(=O)[C@@H]1CCCN1C(=O)[C@@H]1CCCN1C(=O)[C@@H](NC(=O)[C@H](CCCCN)NC(=O)[C@H](Cc1c[nH]c2ccccc12)NC(=O)[C@H](C)NC(=O)[C@@H](NC(=O)[C@H](C)N)[C@@H](C)O)C(C)C)[C@@H](C)CC)[C@@H](C)CC)C(=O)N[C@@H](CCCNC(=N)N)C(=O)N1CCC[C@H]1C(=O)N[C@@H](CC(C)C)C(=O)N[C@@H](CS)C(=O)NCC(=O)N[C@@H](CC(N)=O)C(=O)N[C@@H](CC(=O)O)C(=O)N[C@@H](CCCCN)C(=O)N[C@@H](CO)C(=O)O [PeNi16] (H-ATAWKVPPGLQPIRPIRIRPLCGNDKS-OH; N-terminus and C-terminus assumed) | – | – | – | –
9 | >128/>128/>128 ug/mL | >128/>128/>128 ug/mL | >128/>128/>128 ug/mL | CC[C@H](C)[C@H](NC(=O)[C@H](C)NC(=O)[C@H](Cc1ccccc1)NC(=O)[C@H](C)NC(=O)[C@H](C)NC(=O)[C@@H](N)C(C)C)C(=O)N[C@H](C(=O)NCC(=O)N[C@@H](CS)C(=O)N[C@@H](CC(C)C)C(=O)N[C@@H](CS)C(=O)N[C@@H](CS)C(=O)N[C@@H](CCCNC(=N)N)C(=O)N[C@@H](CCCNC(=N)N)C(=O)N1CCC[C@H]1C(=O)N[C@@H](CCCNC(=N)N)C(=O)N[C@@H](CCCNC(=N)N)C(=O)O)[C@@H](C)CC [PoRo1, VAAFAIIGCLCCRRPRR] (H-VAAFAIIGCLCCRRPRR-OH; N-terminus and C-terminus assumed) | – | – | – | –
10 | >128/>128/>128 ug/mL | >128/>128/>128 ug/mL | >128/>128/>128 ug/mL | N=C(N)NCCC[C@H](NC(=O)[C@H](CCCNC(=N)N)NC(=O)CNC(=O)[C@H](Cc1ccccc1)NC(=O)[C@@H]1CCCN1C(=O)[C@H](Cc1ccccc1)NC(=O)[C@@H]1CCCN1C(=O)[C@@H](N)Cc1ccccc1)C(=O)O [RaSi2, FPFPFGRR] (H-FPFPFGRR-OH; N-terminus and C-terminus assumed) | – | – | – | –
11 | >128/>128/>128 ug/mL | >128/>128/>128 ug/mL | >128/>128/>128 ug/mL | CC[C@H](C)[C@H](NC(=O)[C@@H](N)Cc1ccccc1)C(=O)N[C@@H](CC(C)C)C(=O)N[C@@H](Cc1c[nH]cn1)C(=O)N[C@@H](C)C(=O)N[C@@H](CCCCN)C(=O)N[C@@H](CCCCN)C(=O)N[C@H](C(=O)N[C@@H](CCCNC(=N)N)C(=O)N[C@@H](CO)C(=O)N[C@@H](C)C(=O)N[C@@H](CCCCN)C(=O)O)[C@@H](C)O [VeSi1, FILHAKKTRSAK] (H-FILHAKKTRSAK-OH; N-terminus and C-terminus assumed) | – | – | – | –
